The values below are quoted from earlier work in EP0307115A1, “Phenol esters” (IMPERIAL CHEMICAL INDUSTRIES PLC, priority 1987, dated 1989).

The conditions of the data set: dosed orally in man.

Consider `O=C(NCCNCC(O)COc1ccc(O)cc1)N1CCOCC1` (racemic) [xamoterol, N-(2-[(RS)-2-hydroxy-3-(4-hydroxyphenoxy)-propylamino]ethyl)morpholine-4-carboxamide], for which the “absorbed from the gastrointestinal tract, extent of the administered dose” value is 9-10%.
